Where two headings read alike, the source gives them in different places. Where a SMILES comes first, the peptide text is derived from it. Bounds are passed on as bounds.

3 compounds from patent US11395847B2, “Acylated GLP-1/GLP-2 dual agonists” (Zealand Pharma A/S, priority 2016, dated 2022) can be followed below.

Series [1] can be described thus: Solubility assessment (turbidity absorbance at 325 nm). The format is physicochemical. The procedure: A stock solution of the test peptide (2 mg/ml; determined from the weighed amount of peptide) in demineralized water adjusted to pH 2.5 with HCl was prepared, and aliquots were diluted 1:1 in 100 mM acetate buffer (pH 4.0 and pH 5.0), 100 mM histidine buffer (pH 6.0 and pH 7.0) and 100 mM phosphate buffer (pH 6.0, pH 7.0 and pH 7.5), respectively, and loaded in a standard flat-bottom, non-sterile 96-well UV Microplate. The absorbance of samples (single samples, n=1) at 280 and 325 nm was measured in an absorbance-based plate reader, which was preheated to ambient temperature (typically 25° C.).

A short description of series [2]: Chemical stability (RP-HPLC normalized purity after incubation at 40° C.). It is filed as physicochemical. The conditions noted are these: 14-day incubation, 0.2 mg/ml, normalized purity (area-%); for pH 7 normalized stability: pH 7, 40° C. The method, boiled down:
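Peptide at 0.2 mg/ml final in water adjusted to pH 6, 7, 7.5 or 9, incubated at 40° C for 14 days. Purity measured as main-peak area-% by C18 RP-HPLC (acetonitrile/TFA/water gradient, UV 220 nm) and normalized to T=0 set at 100 for each pH.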

Where [3] appears, read: 100 mM acetate buffer pH 4.0, ambient temperature, read-out: Solubility Acetate buffer pH 4.
[4] abbreviates: 100 mM acetate buffer pH 5.0, ambient temperature, read-out: Solubility Acetate buffer pH 5.
The mark [5] stands for this setting: 100 mM histidine buffer pH 6.0, ambient temperature, read-out: Solubility Histidine buffer pH 6.
The mark [6] stands for this setting: 100 mM histidine buffer pH 7.0, ambient temperature, read-out: Solubility Histidine buffer pH 7.
Where [7] appears, read: 100 mM phosphate buffer pH 6.0, ambient temperature, read-out: Solubility Phosphate buffer pH 6.
Setting [8] is: 100 mM phosphate buffer pH 7.0, ambient temperature, read-out: Solubility Phosphate buffer pH 7.
[9] abbreviates: 100 mM phosphate buffer pH 7.5, ambient temperature, read-out: Solubility Phosphate buffer pH 7.5.

Take `CC[C@H](C)[C@H](NC(=O)[C@H](Cc1ccccc1)NC(=O)[C@H](CC(=O)O)NC(=O)[C@H](CCCNC(=N)N)NC(=O)[C@H](C)NC(=O)[C@H](C)NC(=O)[C@H](CCC(N)=O)NC(=O)[C@H](CCCCNC(=O)CC[C@H](NC(=O)CCCCCCCCCCCCCCCCC(=O)O)C(=O)O)NC(=O)[C@H](CC(=O)O)NC(=O)[C@H](CC(C)C)NC(=O)[C@@H](NC(=O)[C@@H](NC(=O)[C@H](C)NC(=O)[C@H](CC(C)C)NC(=O)[C@H](CCC(=O)O)NC(=O)[C@H](CO)NC(=O)[C@@H](NC(=O)[C@H](Cc1ccccc1)NC(=O)[C@@H](NC(=O)CNC(=O)[C@H](CCC(=O)O)NC(=O)C(C)(C)NC(=O)[C@@H](N)Cc1c[nH]cn1)[C@@H](C)O)[C@@H](C)O)[C@@H](C)O)[C@@H](C)CC)C(=O)N[C@@H](C)C(=O)N[C@@H](Cc1c[nH]c2ccccc12)C(=O)N[C@@H](CC(C)C)C(=O)N[C@H](C(=O)N[C@@H](CCC(N)=O)C(=O)N[C@@H](Cc1c[nH]cn1)C(=O)N[C@@H](CCCCN)C(=O)N[C@H](C(=O)N[C@H](C(=O)N[C@@H](CC(=O)O)C(=O)O)[C@@H](C)O)[C@@H](C)CC)[C@@H](C)CC` [Compound 19] (HELM PEPTIDE1{H.[Aib].E.G.T.F.T.S.E.L.A.T.I.L.D.K.Q.A.A.R.D.F.I.A.W.L.I.Q.H.K.I.T.D}|PEPTIDE2{[O=C(O)CCCCCCCCCCCCCCCCC(=O)[*:2]].[gGlu]}$PEPTIDE1,PEPTIDE2,16:R3-2:R2$$$V2.0): the solubility is less than 1000 µg/mL in series [1] (setting [3]); less than 1000 µg/mL in series [1] (setting [4]); not below 1000 µg/mL in series [1] (setting [5]); not below 1000 µg/mL in series [1] (setting [6]); not below 1000 µg/mL in series [1] (setting [7]); not below 1000 µg/mL in series [1] (setting [8]). Moreover, in series [1] (setting [9]), the solubility is not below 1000 µg/mL. Moreover, in series [2] (pH 6, 40° C.), the “pH 6 normalized stability” value is given as “A (>90% normalised stability)”. In series [2], the “pH 7 normalized stability” value is “A (>90% normalised stability)”.
For the compound `CC[C@H](C)[C@H](NC(=O)[C@H](Cc1ccccc1)NC(=O)[C@H](CC(=O)O)NC(=O)[C@H](CCCNC(=N)N)NC(=O)[C@H](C)NC(=O)[C@H](C)NC(=O)[C@H](CCC(N)=O)NC(=O)[C@H](CCCCNC(=O)CC[C@H](NC(=O)CCCCCCCCCCCCCCCCC(=O)O)C(=O)O)NC(=O)[C@H](CC(=O)O)NC(=O)[C@H](CC(C)C)NC(=O)[C@@H](NC(=O)[C@@H](NC(=O)[C@H](C)NC(=O)[C@H](CC(C)C)NC(=O)[C@H](CCC(=O)O)NC(=O)[C@H](CO)NC(=O)[C@@H](NC(=O)[C@H](Cc1ccccc1)NC(=O)[C@H](CO)NC(=O)CNC(=O)[C@H](CCC(=O)O)NC(=O)C(C)(C)NC(=O)[C@@H](N)Cc1c[nH]cn1)[C@@H](C)O)[C@@H](C)O)[C@@H](C)CC)C(=O)N[C@@H](C)C(=O)N[C@@H](Cc1c[nH]c2ccccc12)C(=O)N[C@@H](CC(C)C)C(=O)N[C@H](C(=O)N[C@@H](Cc1c[nH]cn1)C(=O)N[C@@H](Cc1c[nH]cn1)C(=O)N[C@@H](CCCCN)C(=O)N[C@H](C(=O)N[C@H](C(=O)N[C@@H](CC(=O)O)C(=O)O)[C@@H](C)O)[C@@H](C)CC)[C@@H](C)CC` [Compound 26] (HELM PEPTIDE1{H.[Aib].E.G.S.F.T.S.E.L.A.T.I.L.D.K.Q.A.A.R.D.F.I.A.W.L.I.H.H.K.I.T.D}|PEPTIDE2{[O=C(O)CCCCCCCCCCCCCCCCC(=O)[*:2]].[gGlu]}$PEPTIDE1,PEPTIDE2,16:R3-2:R2$$$V2.0), the solubility in series [1] (setting [3]) is not below 1000 µg/mL; in series [1] (setting [4]), less than 1000 µg/mL; in series [1] (setting [5]), less than 1000 µg/mL; in series [1] (setting [6]) it was not below 1000 µg/mL; in series [1] (setting [7]), less than 1000 µg/mL; in series [1] (setting [8]), not below 1000 µg/mL. Further, the solubility in series [1] (setting [9]) was not below 1000 µg/mL. Besides, the “pH 7 normalized stability” value in series [2] is on record as “A (>90% normalised stability)”.
`CC[C@H](C)[C@H](NC(=O)[C@H](Cc1ccccc1)NC(=O)[C@H](CC(=O)O)NC(=O)[C@H](CCCNC(=N)N)NC(=O)[C@H](C)NC(=O)[C@H](C)NC(=O)[C@H](CCC(N)=O)NC(=O)[C@H](CCCCNC(=O)CC[C@H](NC(=O)CCCCCCCCCCCCCCCCC(=O)O)C(=O)O)NC(=O)[C@H](CC(=O)O)NC(=O)[C@H](CC(C)C)NC(=O)[C@@H](NC(=O)[C@@H](NC(=O)[C@H](C)NC(=O)[C@H](CC(C)C)NC(=O)[C@H](CCC(=O)O)NC(=O)[C@H](CO)NC(=O)[C@@H](NC(=O)[C@H](Cc1ccccc1)NC(=O)[C@H](CO)NC(=O)CNC(=O)[C@H](CCC(=O)O)NC(=O)C(C)(C)NC(=O)[C@@H](N)Cc1c[nH]cn1)[C@@H](C)O)[C@@H](C)O)[C@@H](C)CC)C(=O)N[C@@H](C)C(=O)N[C@@H](Cc1c[nH]c2ccccc12)C(=O)N[C@@H](CC(C)C)C(=O)N[C@H](C(=O)N[C@@H](CC(C)C)C(=O)N[C@@H](Cc1c[nH]cn1)C(=O)N[C@@H](CCCCN)C(=O)N[C@H](C(=O)N[C@H](C(=O)N[C@@H](CC(=O)O)C(=O)O)[C@@H](C)O)[C@@H](C)CC)[C@@H](C)CC` [Compound 28] (HELM PEPTIDE1{H.[Aib].E.G.S.F.T.S.E.L.A.T.I.L.D.K.Q.A.A.R.D.F.I.A.W.L.I.L.H.K.I.T.D}|PEPTIDE2{[O=C(O)CCCCCCCCCCCCCCCCC(=O)[*:2]].[gGlu]}$PEPTIDE1,PEPTIDE2,16:R3-2:R2$$$V2.0): the solubility in series [1] (setting [3]) was less than 1000 µg/mL; in series [1] (setting [4]), less than 1000 µg/mL; in series [1] (setting [5]), not below 1000 µg/mL; in series [1] (setting [6]), not below 1000 µg/mL; in series [1] (setting [7]), not below 1000 µg/mL; in series [1] (setting [8]), not below 1000 µg/mL. Also, the solubility in series [1] (setting [9]) was not below 1000 µg/mL. In addition, the “pH 7 normalized stability” value in series [2] is recorded as “A (>90% normalised stability)”.

As a reminder, the solubility is the dissolved amount per volume that the medium holds.
